Patent US5428038A, “Benzopyranones, a method for producing them and uses therefor” (Dr. Willmar Schwabe GmbH & Co., priority 1991, dated 1995)
Read-outs that look alike come from different tables or passages of the source.

Experiments:
[1] = test system: ovalbumin-induced anaphylactic paw edema; assay: Passive rat paw anaphylaxy (inhibition of edema volume; antiallergic and anti-inflammatory); assay type: in vivo, male Sprague-Dawley rats; conditions: Rattus norvegicus, po; 25 mg/kg p.o. 1 h before test; read-out: Protective action (percentage inhibition of edema volume)
Description: The determination of the antiallergic and anti-inflammatory properties of the compounds in accordance with the invention was using a passive rat paw anaphylaxy model.
Male Sprague-Dawley rats were utilized for all tests. The animals were kept under standardized environmental conditions with free access to food and water. For sensitization to the antigen 100 μl of a mouse antiserum to ovalbumin was injected sublplantarly into the left rear paw. […] The opposite paw was for control injected subplantarly only with 100 μl of the solvent (sterile physiological NaCl solution). Overnight the investigated animals were deprived of food but had water ad lib.
Per group in all tests between 6 and 8 animals were used. One hour later the anaphylactic reaction was caused by the intravenous injection of 10 mg/10 ml/kg ovalbumin in physiological NaCl solution. […] The edema volume was calculated from the difference between the values of the two paws. The antiallergic action is in this case expressed as a percentage inhibition of the edema volume of the animals in the test group as compared with control groups undergoing parallel investigation. […] The determination of the ED50 values was performed by linear regression after log transformation of the administered doses, at least three dosage rates being employed.

NMDA-induced death = assay: NMDA test (25 mg/kg i.v.), prevention of NMDA-induced death (neuroprotective efficacy); assay type: in vivo, male NMRI mice; conditions: Mus musculus, po, NMDA 25 mg/kg i.v.; for ED50: 1 h, dose protecting 50% of animals against NMDA-induced death one hour after application; for responders at 25 mg/kg: 25 mg/kg p.o. 1 h before test; for responders at 50 mg/kg: 50 mg/kg p.o. 1 h before test; for responders at 20 mg/kg: 20 mg/kg p.o. 1 h before test
Description: (§1) In order to determine the neuroprotective and anticonvulsive activity of the compounds in accordance with the invention of the general formula I, two slightly different methods were employed as follows: […]
(§2) 1. In order to determine the neuroprotective efficacy NMDA at a rate of 25 mg/kg/10 ml was administered intravenously to male NMRI mice with a body weight of 20 to 25 g. As a consequence of this application the animals suffer clonic and partly tonic convulsions, which lead to death. As a criterion for the efficacy of the investigated compounds prevention of death is used.
(§3) All animals used in the investigations had free access to food and water prior to the experiments. The test and reference substances were all administered as a suspension in 0.2% agar or water, partly by the intermediary of solution promoters such as for instance PEG-400, perorally using an esophageal probe. Control animals received the same volumes of the solvent with optional solution promoters. One hour after the application of the substance NMDA was administered intravenously and the animals observed for the occurrence of convulsions.
In table 1 the results of the tests (NMDA 25 mg i.v.) performed in accordance with method 1 are compiled with dosages of 5-100 mg of the compounds in accordance with the invention per kg of body weight as compared with known NMDA-antagonists. As a percentage efficacy the percentage of surviving animals is used.
(§4) The determination of the ED50 values was performed in accordance with the method described in Lichtfield and Wilcoxon, J. Pharmacol. exp. Therapeut. 96, 99 (1949) in each case with 4 to 5 groups of 10 animals per dosage rate.

[2] = test system: NMDA-induced tonic convulsions; assay: NMDA test (40 mg/kg i.v.), protection against tonic convulsions (antiepileptic efficacy); assay type: in vivo, male NMRI mice; conditions: Mus musculus, po; for responders at 25 mg/kg: 25 mg/kg p.o. 1 h before test; for responders at 20 mg/kg: 20 mg/kg p.o. 1 h before test
Description: as §1, §2
2. In order to ascertain the antiepileptic efficacy the same method was utilized with an NMDA dosage of 40 mg/kg/10 ml i.v. This higher NMDA dosage led in the case of all animals to the occurrence of tonic convulsions.
as §3
In table 2 the results of the tests (NMDA 40 mg i.v.) performed in accordance with method 2 are compiled with dosages of 5-25 mg of the compounds in accordance with the invention per kg of body weight in comparison with known anticonvulsants and antiepileptics. As a percentage efficacy the percentage of animals is used which in the test were protected against the occurrence of tonic convulsions.
as §4

[3] = read-out: Protective action (percentage of surviving animals)
[4] = NMDA 40 mg/kg i.v., read-out: Protective action (percentage of animals protected against tonic convulsions)
[5] = 5 mg/kg p.o. 1 h before test, NMDA 40 mg/kg i.v., read-out: Protective action (percentage of animals protected against tonic convulsions)
[6] = 1 h, dose protecting 50% of animals against tonic convulsions one hour after application, NMDA 40 mg/kg i.v., read-out: ED50
[7] = 50 mg/kg p.o. 1 h before test, NMDA 40 mg/kg i.v., read-out: Protective action (percentage of animals protected against tonic convulsions)
[8] = 1 h, read-out: Protective action (percentage of animals protected against tonic convulsions)

COc1cc2oc(=O)ccc2cc1OCC(O)CN1CCN(c2ccccc2)CC1 (racemic) [Example 18, (±)-7-methoxy-6-[2-hydroxy-3-(4-phenyl-1-piperazinyl)propoxy]-2H-1-benzopyran-2-one]
inhibition in vivo at 25 mg/kg [1]: 56% | ED50 (NMDA-induced death): 6.4 mg/kg | responders at 25 mg/kg (NMDA-induced death; [3]): 100% | responders at 25 mg/kg [2, 4]: 100%

COc1cc2oc(=O)ccc2cc1OCC(O)CN1CCN(c2cccc(Cl)c2)CC1 (racemic) [Example 19, (±)-6-{3-[4-(3-chlorophenyl)-1-piperazinyl]-2-hydroxypropoxy}-7-methoxy-2H-1-benzopyran-2-one]
inhibition in vivo at 25 mg/kg [1]: 32% | ED50 (NMDA-induced death): 8.3 mg/kg | responders at 25 mg/kg (NMDA-induced death; [3]): 100% | responders at 25 mg/kg [2, 4]: 87.5%

COc1cc2ccc(=O)oc2cc1OCC(O)CN1CCC(c2ccccc2)CC1 (racemic) [Example 23, (±)-7-[2-hydroxy-3-(4-phenyl-1-piperidinyl)-propoxy]-6-methoxy-2H-1-benzopyran-2-one]
ED50 (NMDA-induced death): 28.5 mg/kg | responders at 100 mg/kg (NMDA-induced death; 100 mg/kg p.o. 1 h before test, read-out: Protective action (percentage of surviving animals)): 100% | responders at 5 mg/kg [2, 5]: 12.5%

CCOc1cc2ccc(=O)oc2cc1OCCCN1CCN(c2ccccc2)CC1 [Example 4, 6-ethoxy-7-[3-(4-phenyl-1-piperazinyl)propoxy]-2H-1-benzopyran-2-one]
inhibition in vivo at 25 mg/kg [1]: 79% | ED50 (NMDA-induced death): 1.7 mg/kg | responders at 25 mg/kg (NMDA-induced death; [3]): 100% | responders at 5 mg/kg [2, 5]: 62.5%

COc1cc2oc(=O)ccc2cc1OCCCN1CCN(c2cccc(C(F)(F)F)c2)CC1 [Example 6, 7-methoxy-6-{3-[4-(3-trifluoromethylphenyl)-1-piperazinyl]propoxy}-2H-1-benzopyran-2-one]
ED50 (NMDA-induced death): 13.5 mg/kg | responders at 25 mg/kg (NMDA-induced death; [3]): 87.5% | responders at 25 mg/kg [2, 4]: 0%

COc1cc2ccc(=O)oc2cc1OCCCN1CCC(c2ccccc2)CC1 [Example 10, 6-methoxy-7-[3-(4-phenyl-1-piperidinyl)propoxy]-2H-1-benzopyran-2-one]
inhibition in vivo at 25 mg/kg [1]: 22% | ED50 (NMDA-induced death): 23 mg/kg | responders at 25 mg/kg (NMDA-induced death; [3]): 75% | responders at 5 mg/kg [2, 5]: 25%

COc1cc2oc(=O)c3c(c2cc1OCCCN1CCN(c2ccccc2)CC1)CCCC3 [Example 42, 7,8,9,10-tetrahydro-3-methoxy-2-[3-(4-phenyl-1-piperazinyl)propoxy]-6H-dibenzo[b,d]pyran-6-one]
inhibition in vivo at 25 mg/kg [1]: 39% | responders at 25 mg/kg (NMDA-induced death; [3]): 100%

COc1cc2oc(=O)c3c(c2cc1OCCCN1CCC(c2ccccc2)CC1)CCCC3 [Example 43, 7,8,9,10-tetrahydro-3-methoxy-2-[3-(4-phenyl-1-piperidinyl)propoxy]-6H-dibenzo[b,d]pyran-6-one]
inhibition in vivo at 25 mg/kg [1]: 19% | ED50 (NMDA-induced death): 5.5 mg/kg | responders at 25 mg/kg (NMDA-induced death; [3]): 100% | responders at 5 mg/kg [2, 5]: 37.5%

COc1cc2oc(=O)c3c(c2cc1OCCCN1CCN(c2ccccc2)CC1)CCC3 [Example 45, 2,3-dihydro-7-methoxy-8-[3-(4-phenyl-1-piperazinyl)propoxy]cyclopenta[c][1]benzopyran-4(1H)-one]
inhibition in vivo at 25 mg/kg [1]: 69% | ED50 (NMDA-induced death): 1.2 mg/kg | responders at 25 mg/kg (NMDA-induced death; [3]): 100%

COc1cc2oc(=O)c3c(c2cc1OCCCCN1CCN(c2ccccc2)CC1)CCC3 [Example 46, 2,3-dihydro-7-methoxy-8-[4-(4-phenyl-1-piperazinyl)butyloxy]cyclopenta[c][1]benzopyran-4(1H)-one]
inhibition in vivo at 25 mg/kg [1]: 35% | ED50 (NMDA-induced death): 3.9 mg/kg | responders at 25 mg/kg (NMDA-induced death; [3]): 100%

COc1cc2oc(=O)c3c(c2cc1OCCN1CCC(c2ccccc2)CC1)CCC3 [Example 48, 2,3-dihydro-7-methoxy-8-[2-(4-phenyl-1-piperidinyl)ethoxy]cyclopenta[c][1]benzopyran-4(1H)-one]
inhibition in vivo at 25 mg/kg [1]: 35% | ED50 (NMDA-induced death): 4 mg/kg | responders at 5 mg/kg (NMDA-induced death; 5 mg/kg p.o. 1 h before test, read-out: Protective action (percentage of surviving animals)): 100%

COc1cc2oc(=O)c3c(c2cc1OCCCN1CCC(c2ccccc2)CC1)CCC3 [Example 49, 2,3-dihydro-7-methoxy-8-[3-(4-phenyl-1-piperidinyl)propoxy]cyclopenta[c][1]benzopyran-4(1H)-one]
inhibition in vivo at 25 mg/kg [1]: 47% | ED50 (NMDA-induced death): 6.8 mg/kg | responders at 25 mg/kg (NMDA-induced death; [3]): 75% | ED50 [2, 6]: 4 mg/kg | responders at 20 mg/kg [2, 4]: 87.5%

COc1cc2oc(=O)c3c(c2cc1OCCCN1CCN(c2ccc(F)cc2)CC1)CCC3 [Example 52, 8-{3-[4-(4-fluorophenyl)-1-piperazinyl]propoxy}-2,3-dihydro-7-methoxy-cyclopenta[c][1]benzopyran-4(1H)-one]
inhibition in vivo at 25 mg/kg [1]: 74% | ED50 (NMDA-induced death): 1.2 mg/kg | responders at 25 mg/kg (NMDA-induced death; [3]): 100%

NC(=O)N1c2ccccc2C=Cc2ccccc21 [carbamazepin]
responders at 50 mg/kg [2, 7]: 75%

COc1ccc2c(c1)[C@]13CCCC[C@@H]1[C@H](C2)N(C)CC3 [dextromethorphan, reference compound]
ED50 (NMDA-induced death): 66.7 mg/kg | responders at 50 mg/kg (NMDA-induced death; [3]): 50% | ED50 ([2]; 1 h): 58 mg/kg | responders at 100 mg/kg [2, 8]: 100%

CN1C(=O)CN=C(c2ccccc2)c2cc(Cl)ccc21 [diazepam]
responders at 5 mg/kg [2, 8]: 25%

O=C1NC(=O)C(c2ccccc2)(c2ccccc2)N1 [diphenylhydantoin]
responders at 50 mg/kg [2, 7]: 50%

Fc1ccc(C(c2ccc(F)cc2)N2CCN(C/C=C/c3ccccc3)CC2)cc1 [flunarizin, reference compound]
ED50 (NMDA-induced death): 22.8 mg/kg | responders at 50 mg/kg (NMDA-induced death; [3]): 100% | responders at 50 mg/kg [2, 7]: 100%

COCCOC(=O)C1=C(C)NC(C)=C(C(=O)OC(C)C)C1c1cccc([N+](=O)[O-])c1 (stereo not shown) [nimodipin, reference compound]
ED50 (NMDA-induced death): 18.5 mg/kg | responders at 20 mg/kg (NMDA-induced death; [3]): 87.5% | ED50 [2, 6]: 25.4 mg/kg | responders at 20 mg/kg [2, 4]: 25%

CCC1(c2ccccc2)C(=O)NC(=O)NC1=O [phenobarbital]
responders at 50 mg/kg [2, 8]: 62.5%

CCCC(CCC)C(=O)O [valproinic acid]
responders at 250 mg/kg [2, 8]: 87.5%

COc1ccc(CCN(C)CCCC(C#N)(c2ccc(OC)c(OC)c2)C(C)C)cc1OC (stereo not shown) [verapamil, reference compound]
ED50 (NMDA-induced death): 17.3 mg/kg | responders at 20 mg/kg (NMDA-induced death; [3]): 87.5% | responders at 50 mg/kg [2, 8]: 50%
